System: P. aeruginosa ATCC BAA-3107 (SEN) and P. aeruginosa LESB58 (MDR)
Assay: Adaptive laboratory evolution (ALE), relative MIC of evolved lines
Type: cell-based, Pseudomonas aeruginosa
From the text: Using the same set of bacterial strains, we initiated adaptive laboratory evolution with the aim to maximize the level of antibiotic resistance in the populations achieved during a longer, but fixed time period.
An established protocol for adaptive laboratory evolution[46],[73] was followed to propagate populations with the highest resistance levels. Starting with an antibiotic concentration that caused approximately 50% growth inhibition, ten parallel populations for each antibiotic-ancestor strain combination were grown for 72 hours at 37 °C with continuous shaking (300 RPM). MHB broth medium was used unless stated otherwise. After each incubation, 20 µl of each culture was transferred to four new wells containing fresh medium with increasing antibiotic concentrations (0.5×, 1×, 1.5×, and 2.5× the previous concentration) in a chessboard layout to monitor potential cross-contamination. Growth was monitored by measuring OD600 using a Biotek Synergy 2 microplate reader, and only populations grown in the highest drug concentration with an OD600 > 0.2 were transferred further.
A robotic liquid handling system was used to automatically prepare a 11 to 16-step serial dilution in 384-well microtiter plates (Greiner). A final concentration of 5 × 10^5 bacterial cells per mL were inoculated into each well containing 60 µL MHB medium. Bacterial cultures were incubated at 37 °C with continuous shaking (Infors shaker, 900 rpm with 3 mm throw) for 18 hours (2 replicates from each). Cell growth was monitored by measuring the optical density (OD600 values, using Biotek Synergy microplate reader). MIC was defined as the antibiotic concentration of complete growth inhibition (i.e., OD600 < 0.05). Relative MIC was calculated as follows:1 relativeMIC=MICevolved/MICancestor […]
Supplementary Figure 4. Resistance levels following adaptive laboratory evolution across bacterial strains. The level of resistance was measured as the fold change in relative MIC between evolved and ancestral strains after ~60 days of adaptive laboratory evolution. Data are grouped by bacterial strain (A. baumannii (AB), E. coli (EC), K. pneumoniae (KP), and P. aeruginosa (PA)) and categorized as either multidrug-resistant (MDR) or sensitive (SEN). Each data point represents a laboratory evolved line, and boxplots show the median, first and third quartiles, with whiskers indicating the 5th and 95th percentiles.
Statistical analysis was performed using two-sided Dunn’s post-hoc test with Benjamini-Hochberg correction for multiple comparisons (****/ ***/ **/ * indicates p < 0.0001/ 0.001/ 0.01/ 0.05). For detailed information on antibiotic and bacterial species, see Supplementary Table 1. For mode of action groups, refer to Table 1. Source data are provided as a Source Data file.

[1] = PA-MDR (Pseudomonas aeruginosa LESB 58), evolved line 1
[2] = PA-MDR (Pseudomonas aeruginosa LESB 58), evolved line 6
[3] = PA-MDR, Pseudomonas aeruginosa LESB 58, evolved line 9
[4] = PA-MDR, Pseudomonas aeruginosa LESB 58, evolved line 10
[5] = PA-MDR, Pseudomonas aeruginosa LESB 58, evolved line 2
[6] = PA-MDR, Pseudomonas aeruginosa LESB 58, evolved line 3
[7] = PA-MDR, Pseudomonas aeruginosa LESB 58, evolved line 4
[8] = PA-MDR, Pseudomonas aeruginosa LESB 58, evolved line 5
[9] = PA-MDR, Pseudomonas aeruginosa LESB 58, evolved line 7
[10] = PA-MDR, Pseudomonas aeruginosa LESB 58, evolved line 8
[11] = PA-SEN, Pseudomonas aeruginosa ATCC BAA 3107, evolved line 1
[12] = PA-SEN, Pseudomonas aeruginosa ATCC BAA 3107, evolved line 2
[13] = PA-SEN, Pseudomonas aeruginosa ATCC BAA 3107, evolved line 3
[14] = PA-SEN, Pseudomonas aeruginosa ATCC BAA 3107, evolved line 4
[15] = PA-SEN, Pseudomonas aeruginosa ATCC BAA 3107, evolved line 5
[16] = PA-SEN, Pseudomonas aeruginosa ATCC BAA 3107, evolved line 6
[17] = PA-SEN, Pseudomonas aeruginosa ATCC BAA 3107, evolved line 7
[18] = PA-SEN, Pseudomonas aeruginosa ATCC BAA 3107, evolved line 8
[19] = PA-SEN, Pseudomonas aeruginosa ATCC BAA 3107, evolved line 9
[20] = PA-SEN, Pseudomonas aeruginosa ATCC BAA 3107, evolved line 10

O=c1ccc2ncc(=O)n3c2n1C[C@H]3CN1CCC(NCc2cc3c(cn2)OCCC3)CC1 [Gepotidacin]
64 µg/mL: MIC of evolved line [3]
128 µg/mL: MIC of evolved line [1] | MIC of evolved line [2] | MIC of evolved line [4] | MIC of evolved line [5] | MIC of evolved line [6] | MIC of evolved line [7] | MIC of evolved line [8] | MIC of evolved line [9] | MIC of evolved line [10] | MIC of evolved line [13] | MIC of evolved line [15] | MIC of evolved line [18]
32: Relative MIC [1] | Relative MIC [2] | Relative MIC (PA-MDR, Pseudomonas aeruginosa LESB 58, evolved line 1 versus ancestor) | Relative MIC (PA-MDR, Pseudomonas aeruginosa LESB 58, evolved line 2 versus ancestor) | Relative MIC (PA-MDR, Pseudomonas aeruginosa LESB 58, evolved line 3 versus ancestor) | Relative MIC (PA-MDR, Pseudomonas aeruginosa LESB 58, evolved line 4 versus ancestor) | Relative MIC (PA-MDR, Pseudomonas aeruginosa LESB 58, evolved line 5 versus ancestor) | Relative MIC (PA-MDR, Pseudomonas aeruginosa LESB 58, evolved line 6 versus ancestor) | Relative MIC (PA-MDR, Pseudomonas aeruginosa LESB 58, evolved line 7 versus ancestor) | Relative MIC (PA-MDR, Pseudomonas aeruginosa LESB 58, evolved line 8 versus ancestor) | Relative MIC [4] | Relative MIC (PA-MDR, Pseudomonas aeruginosa LESB 58, evolved line 10 versus ancestor) | Relative MIC [5] | Relative MIC [6] | Relative MIC [7] | Relative MIC [8] | Relative MIC [9] | Relative MIC [10] | Relative MIC [13] | Relative MIC (PA-SEN, Pseudomonas aeruginosa ATCC BAA 3107, evolved line 3 versus ancestor) | Relative MIC [15] | Relative MIC (PA-SEN, Pseudomonas aeruginosa ATCC BAA 3107, evolved line 5 versus ancestor) | Relative MIC [18] | Relative MIC (PA-SEN, Pseudomonas aeruginosa ATCC BAA 3107, evolved line 8 versus ancestor)
256 µg/mL: MIC of evolved line [11] | MIC of evolved line [12] | MIC of evolved line [14] | MIC of evolved line [16] | MIC of evolved line [17] | MIC of evolved line [19] | MIC of evolved line [20]
16: Relative MIC [3] | Relative MIC (PA-MDR, Pseudomonas aeruginosa LESB 58, evolved line 9 versus ancestor)
64: Relative MIC [11] | Relative MIC (PA-SEN, Pseudomonas aeruginosa ATCC BAA 3107, evolved line 1 versus ancestor) | Relative MIC [12] | Relative MIC (PA-SEN, Pseudomonas aeruginosa ATCC BAA 3107, evolved line 2 versus ancestor) | Relative MIC [14] | Relative MIC (PA-SEN, Pseudomonas aeruginosa ATCC BAA 3107, evolved line 4 versus ancestor) | Relative MIC [16] | Relative MIC (PA-SEN, Pseudomonas aeruginosa ATCC BAA 3107, evolved line 6 versus ancestor) | Relative MIC [17] | Relative MIC (PA-SEN, Pseudomonas aeruginosa ATCC BAA 3107, evolved line 7 versus ancestor) | Relative MIC [19] | Relative MIC (PA-SEN, Pseudomonas aeruginosa ATCC BAA 3107, evolved line 9 versus ancestor) | Relative MIC [20] | Relative MIC (PA-SEN, Pseudomonas aeruginosa ATCC BAA 3107, evolved line 10 versus ancestor)
1.806: Relative MIC (log10) (PA-SEN (Pseudomonas aeruginosa ATCC BAA 3107), evolved line 1 adapted to the named antibiotic) | Relative MIC (log10) (PA-SEN (Pseudomonas aeruginosa ATCC BAA 3107), evolved line 4 adapted to the named antibiotic) | Relative MIC (log10) (PA-SEN (Pseudomonas aeruginosa ATCC BAA 3107), evolved line 6 adapted to the named antibiotic) | Relative MIC (log10) (PA-SEN (Pseudomonas aeruginosa ATCC BAA 3107), evolved line 9 adapted to the named antibiotic) | Relative MIC (log10) (PA-SEN (Pseudomonas aeruginosa ATCC BAA 3107), evolved line 10 adapted to the named antibiotic)
1.505: Relative MIC (log10) (PA-MDR (Pseudomonas aeruginosa LESB 58), evolved line 1 adapted to the named antibiotic) | Relative MIC (log10) (PA-MDR (Pseudomonas aeruginosa LESB 58), evolved line 2 adapted to the named antibiotic) | Relative MIC (log10) (PA-MDR (Pseudomonas aeruginosa LESB 58), evolved line 5 adapted to the named antibiotic) | Relative MIC (log10) (PA-MDR (Pseudomonas aeruginosa LESB 58), evolved line 7 adapted to the named antibiotic) | Relative MIC (log10) (PA-MDR (Pseudomonas aeruginosa LESB 58), evolved line 8 adapted to the named antibiotic)

C[C@@H](O)[C@H]1C(=O)N2C(C(=O)O)=C(S[C@@H]3CN[C@H](C(=O)N(C)C)C3)[C@H](C)[C@H]12 [Meropenem]
64 µg/mL: MIC of evolved line [12] | MIC of evolved line [14] | MIC of evolved line [16] | MIC of evolved line [20]
256 µg/mL: MIC of evolved line [3]
16 µg/mL: MIC of evolved line [11]
32 µg/mL: MIC of evolved line [4] | MIC of evolved line [18]

COc1c(N2C[C@@H]3CCCN[C@@H]3C2)c(F)cc2c(=O)c(C(=O)O)cn(C3CC3)c12 [Moxifloxacin]
256 µg/mL: MIC of evolved line (PA-SEN (ATCC BAA 3107), evolved line 2) | MIC of evolved line (PA-SEN (ATCC BAA 3107), evolved line 7) | MIC of evolved line (PA-SEN (ATCC BAA 3107), evolved line 9)
512 µg/mL: MIC of evolved line (PA-SEN (ATCC BAA 3107), evolved line 3) | MIC of evolved line (PA-SEN (ATCC BAA 3107), evolved line 6) | MIC of evolved line (PA-SEN (ATCC BAA 3107), evolved line 8) | MIC of evolved line (PA-SEN ATCC BAA 3107, evolved line 1)
128 µg/mL: MIC of evolved line (PA-SEN (ATCC BAA 3107), evolved line 4) | MIC of evolved line (PA-SEN (ATCC BAA 3107), evolved line 10)
